Data set [1] concerns Rattus norvegicus. Nature of the data set: Inhibition of LH-RH agonist leuprorelin-induced testosterone steroidogenesis in Sprague-Dawley rat at 20 mg/kg, po administered 1 hr prior leuprorelin-induction measured up to 240 mins by GC/MS analysis. Type of data set: functional, organism-based. More on the design: dose 20 mg/kg.
The target of data set [2] is T1, Androgen receptor (Homo sapiens) (UniProt P10275).
T1 sequence (whole entry): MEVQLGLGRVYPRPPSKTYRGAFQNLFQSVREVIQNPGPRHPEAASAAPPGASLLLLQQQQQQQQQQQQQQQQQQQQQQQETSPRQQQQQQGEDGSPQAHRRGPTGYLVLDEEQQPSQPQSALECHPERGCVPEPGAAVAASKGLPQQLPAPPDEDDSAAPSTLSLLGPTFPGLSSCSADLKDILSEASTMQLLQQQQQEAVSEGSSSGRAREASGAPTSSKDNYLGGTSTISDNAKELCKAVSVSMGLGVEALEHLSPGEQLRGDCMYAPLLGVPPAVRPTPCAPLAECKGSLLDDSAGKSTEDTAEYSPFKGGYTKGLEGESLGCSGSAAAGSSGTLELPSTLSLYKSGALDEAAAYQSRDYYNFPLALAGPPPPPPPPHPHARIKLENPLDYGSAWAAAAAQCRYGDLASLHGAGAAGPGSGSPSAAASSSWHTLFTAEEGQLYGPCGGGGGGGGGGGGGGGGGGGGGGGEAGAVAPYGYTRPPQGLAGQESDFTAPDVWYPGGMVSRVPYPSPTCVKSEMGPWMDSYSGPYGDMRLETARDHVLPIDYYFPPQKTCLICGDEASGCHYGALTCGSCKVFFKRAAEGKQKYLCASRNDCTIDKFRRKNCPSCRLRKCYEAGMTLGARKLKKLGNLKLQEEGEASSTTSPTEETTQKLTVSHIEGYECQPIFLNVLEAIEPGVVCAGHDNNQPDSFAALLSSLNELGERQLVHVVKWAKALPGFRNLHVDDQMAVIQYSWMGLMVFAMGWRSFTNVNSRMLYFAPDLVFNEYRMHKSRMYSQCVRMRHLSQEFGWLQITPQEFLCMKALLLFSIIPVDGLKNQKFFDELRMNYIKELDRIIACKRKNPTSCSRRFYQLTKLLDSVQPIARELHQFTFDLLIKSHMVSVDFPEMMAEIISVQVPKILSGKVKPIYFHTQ
Nature of the data set: Antagonist activity at human androgen receptor expressed in human HeLa cells assessed as inhibition of DHT-induced response after 40 hrs by luciferase/beta-galactosidase-based reporter gene assay. It is filed as functional, cell-based.

The target of data set [3] is T2, 17-beta-hydroxysteroid dehydrogenase type 2 (Homo sapiens) (UniProt P37059).
T2 sequence (whole entry): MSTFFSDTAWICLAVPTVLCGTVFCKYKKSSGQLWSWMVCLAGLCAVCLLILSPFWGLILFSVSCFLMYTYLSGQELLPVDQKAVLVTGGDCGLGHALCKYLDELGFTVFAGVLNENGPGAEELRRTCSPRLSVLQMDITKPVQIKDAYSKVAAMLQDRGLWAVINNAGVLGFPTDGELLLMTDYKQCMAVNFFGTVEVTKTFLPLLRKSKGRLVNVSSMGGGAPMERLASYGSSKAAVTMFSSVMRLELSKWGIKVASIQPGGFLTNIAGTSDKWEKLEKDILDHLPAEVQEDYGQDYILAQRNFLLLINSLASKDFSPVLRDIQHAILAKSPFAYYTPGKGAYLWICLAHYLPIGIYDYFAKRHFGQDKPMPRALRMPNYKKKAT
The data set is described as follows: Inhibition of human recombinant 17-beta-HSD2 expressed in human HeLa cells using estradiol as substrate preincubated for 30 mins prior substrate addition measured after 120 mins by spectrophotometry. It is filed as cell-based.

Data set [4] deals with T3, Glucocorticoid receptor (Homo sapiens) (UniProt P04150).
T3 sequence (whole entry): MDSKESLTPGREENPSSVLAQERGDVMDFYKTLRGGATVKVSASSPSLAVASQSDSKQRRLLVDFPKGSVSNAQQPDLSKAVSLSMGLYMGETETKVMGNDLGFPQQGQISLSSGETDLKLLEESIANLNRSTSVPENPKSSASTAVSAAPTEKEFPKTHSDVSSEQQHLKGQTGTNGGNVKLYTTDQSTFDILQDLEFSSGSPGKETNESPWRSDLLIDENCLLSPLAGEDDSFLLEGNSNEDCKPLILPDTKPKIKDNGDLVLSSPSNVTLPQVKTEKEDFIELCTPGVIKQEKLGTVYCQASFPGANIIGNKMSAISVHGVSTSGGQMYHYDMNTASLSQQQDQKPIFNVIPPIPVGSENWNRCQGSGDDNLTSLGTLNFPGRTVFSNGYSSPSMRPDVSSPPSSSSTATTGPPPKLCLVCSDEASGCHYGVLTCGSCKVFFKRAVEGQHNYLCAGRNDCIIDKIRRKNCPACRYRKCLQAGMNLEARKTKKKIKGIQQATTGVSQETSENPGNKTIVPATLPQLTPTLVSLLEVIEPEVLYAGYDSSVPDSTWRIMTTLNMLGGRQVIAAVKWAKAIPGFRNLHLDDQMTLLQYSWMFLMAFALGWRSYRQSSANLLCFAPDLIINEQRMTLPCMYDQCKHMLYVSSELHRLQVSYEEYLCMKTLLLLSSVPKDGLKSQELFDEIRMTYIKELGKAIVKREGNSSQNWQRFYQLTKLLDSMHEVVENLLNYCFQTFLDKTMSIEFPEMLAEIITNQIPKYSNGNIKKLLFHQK
Nature of the data set: Antagonist activity at human GR receptor expressed in human HeLa cells assessed as inhibition of DHT-induced response after 40 hrs by luciferase/beta-galactosidase-based reporter gene assay. It is filed as functional, cell-based.

Data set [5] concerns the target T4, Estrogen receptor (Homo sapiens) (UniProt P03372).
T4 sequence (whole entry): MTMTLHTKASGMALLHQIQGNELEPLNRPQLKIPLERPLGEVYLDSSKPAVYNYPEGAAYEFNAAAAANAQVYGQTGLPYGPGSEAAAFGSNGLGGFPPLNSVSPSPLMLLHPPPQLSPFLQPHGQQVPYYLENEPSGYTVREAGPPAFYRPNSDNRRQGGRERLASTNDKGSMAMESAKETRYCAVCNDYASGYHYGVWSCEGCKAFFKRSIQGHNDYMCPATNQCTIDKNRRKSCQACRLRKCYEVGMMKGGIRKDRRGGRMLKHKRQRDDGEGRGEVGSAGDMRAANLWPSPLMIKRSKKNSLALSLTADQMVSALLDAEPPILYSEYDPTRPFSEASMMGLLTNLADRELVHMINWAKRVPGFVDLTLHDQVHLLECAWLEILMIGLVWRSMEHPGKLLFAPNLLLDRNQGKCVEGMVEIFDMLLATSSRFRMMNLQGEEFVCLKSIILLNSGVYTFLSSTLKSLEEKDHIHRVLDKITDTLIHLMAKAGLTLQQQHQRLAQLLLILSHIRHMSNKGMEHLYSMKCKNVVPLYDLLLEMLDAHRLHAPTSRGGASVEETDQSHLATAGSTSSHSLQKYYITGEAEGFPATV
The data set is described as follows: Antagonist activity at human ERalpha receptor expressed in human HeLa cells assessed as inhibition of DHT-induced response after 40 hrs by luciferase/beta-galactosidase-based reporter gene assay. It is filed as functional, cell-based.

The target in data set [6] is T3, Glucocorticoid receptor (Homo sapiens). The data set is described as follows: Agonist activity at human Glucocorticoid receptor expressed in human HeLa cells assessed as DHT-induced response after 40 hrs by luciferase/beta-galactosidase-based reporter gene assay. Type of data set: functional, cell-based.
Data set [7] deals with T4, Estrogen receptor (Homo sapiens). Nature of the data set: Agonist activity at human Estrogen receptor ERalpha expressed in human HeLa cells assessed as DHT-induced response after 40 hrs by luciferase/beta-galactosidase-based reporter gene assay. Type of data set: functional, cell-based.
Data set [8] concerns the target T5, 17-beta-hydroxysteroid dehydrogenase type 3 (Homo sapiens, UniProt P37058).
T5 sequence (P37058 whole entry): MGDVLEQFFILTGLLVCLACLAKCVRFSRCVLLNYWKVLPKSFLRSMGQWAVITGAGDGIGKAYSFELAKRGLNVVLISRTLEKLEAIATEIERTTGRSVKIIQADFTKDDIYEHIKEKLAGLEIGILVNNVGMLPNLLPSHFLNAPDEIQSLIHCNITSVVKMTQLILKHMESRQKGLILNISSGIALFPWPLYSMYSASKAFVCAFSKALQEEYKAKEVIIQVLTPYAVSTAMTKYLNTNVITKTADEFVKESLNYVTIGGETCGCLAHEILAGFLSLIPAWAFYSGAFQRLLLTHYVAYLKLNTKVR
The following applies: hela.
Description: Inhibition of human recombinant 17-beta-HSD3 expressed in human HeLa cells using androstenedione as substrate preincubated for 30 mins prior substrate addition measured after 120 mins by spectrophotometry

The target of data set [9] is T6, 17-beta-hydroxysteroid dehydrogenase type 1 (Homo sapiens) (UniProt P14061).
T6 sequence (whole entry): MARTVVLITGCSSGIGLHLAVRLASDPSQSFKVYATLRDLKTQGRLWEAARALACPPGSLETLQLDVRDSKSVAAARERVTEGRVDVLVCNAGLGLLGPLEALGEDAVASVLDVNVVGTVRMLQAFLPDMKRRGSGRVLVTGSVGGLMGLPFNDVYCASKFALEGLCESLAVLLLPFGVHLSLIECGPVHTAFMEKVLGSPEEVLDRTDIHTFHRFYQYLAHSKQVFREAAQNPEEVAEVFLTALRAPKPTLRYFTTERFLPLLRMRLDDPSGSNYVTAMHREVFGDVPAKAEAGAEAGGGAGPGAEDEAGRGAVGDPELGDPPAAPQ
The data set is described as follows: Inhibition of human recombinant 17-beta-HSD1 expressed in human HeLa cells using estrone as substrate preincubated for 30 mins prior substrate addition measured after 120 mins by spectrophotometry. It is filed as cell-based.

The target of data set [10] is T1, Androgen receptor (Homo sapiens). Nature of the data set: Agonist activity at human androgen receptor expressed in human HeLa cells assessed as DHT-induced response after 40 hrs by luciferase/beta-galactosidase-based reporter gene assay. It is filed as functional, cell-based.
Data set [11] can be described thus: Solubility of the compound. Type of data set: physicochemical.

Results on seven molecules are retold here after ChEMBL document CHEMBL2016457, “Discovery of potent and orally bioavailable 17β-hydroxysteroid dehydrogenase type 3 inhibitors” (Bioorg Med Chem, 2012).

Structures are written as SMILES. Calls of active or inactive are those of the source. A value given as a limit tells only on which side of the number the result lay.

As for `CC(=O)O[C@H]1CC[C@@]2(C)C(=CC[C@@H]3[C@@H]2CC[C@]2(C)C(c4cccnc4)=CC[C@@H]32)C1`, the inhibition entry in [1] was “Active”.

With `COc1ccc(N2C(=O)O/C(=C\c3ccc(O)c(C#N)c3)C2=O)cc1`, the result in data set [2], in [4], in data set [5], in data set [6], in data set [7] and in data set [10] was inactive. The inhibition entry in [3] and in data set [9] was “inactive” in each case. Besides, the IC50 entry in [8] is “Not Active”.

For `CN1CCC(N2C(=O)/C(=C/c3ccc(O)c(Br)c3)SC2=S)CC1`, the outcome in data set [2], in [4], in data set [5], in data set [6], in [7] and in data set [10] was inactive. Besides, the inhibition result in data set [3] and in data set [9] was “inactive” in each case. Besides, the IC50 result in data set [8] was “Not Active”.

Turning to `O=C(O)c1ccc(N2C(=O)O/C(=C\c3ccc(O)c(Br)c3)C2=O)cc1`, the outcome in data set [2], in data set [4], in data set [5], in [6], in [7] and in data set [10] was inactive. Also, the inhibition result in data set [3] and in data set [9] was “inactive” each time. In data set [8], the IC50 result is reported as “Not Active”.

In the case of `COc1ccc(N2C(=O)/C(=C/c3ccc(O)c(Br)c3)OC2=S)cc1`, the outcome in data set [2], in [4], in [5], in data set [6], in data set [7] and in data set [10] was inactive. Further, the solubility in data set [11] is less than 1 µg/mL. Also, the inhibition result in data set [3] and in data set [9] was “inactive” throughout.

As to `COc1ccc(N2C(=O)O/C(=C\c3ccc(O)c(C(=O)O)c3)C2=O)cc1`, the result in data set [2], in data set [4], in [5], in data set [6], in [7] and in data set [10] was inactive. Also, the inhibition result in [3] and in data set [9] was “inactive” in each case. For the same molecule, the IC50 result in data set [8] is “Not Active”.

As to `O=C1NC(=S)S/C1=C\c1ccc(O)c(Br)c1`, the result in data set [2], in [4], in data set [5], in data set [6], in data set [7] and in [10] was inactive. Also, the inhibition result in [3] and in data set [9] was “inactive” each time. For the same molecule, in data set [8], the IC50 entry is recorded as “Not Active”.
